Assay results reported in paper PMC11213733, “Computational approaches identify a transcriptomic fingerprint of drug-induced structural cardiotoxicity” (Cell Biology and Toxicology, 2024).
Where a name gives a salt, the structure may show the parent alone.

What was measured:
[1] = ref FDA label, cited from earlier work; for Structural cardiotoxin?: FDA label references heart failure or a decrease in left ventricular ejection fraction; for Functional cardiotoxin?: compound annotation
cardiac microtissues [2] = experiment: Ingenuity Pathway Analysis over-representation of differentially expressed genes (activation Z-score); assay type: cell-based, human; conditions: 48hr high; Group 1
cardiac microtissues [3] = experiment: Transcriptomic profiling (mRNA-seq) and DESeq2 differential gene expression analysis in cardiac microtissues; conditions: absolute log2(Fold-Change) > 1, FDR p ≤ 0.05; for number of significant differentially expressed genes, 6hr high / number of significant differentially expressed genes, 48hr high / number of significant differentially expressed genes, 72hr high: high concentration; for number of significant differentially expressed genes, 6hr low / number of significant differentially expressed genes, 48hr low / number of significant differentially expressed genes, 72hr low: low concentration

## C#Cc1cccc(Nc2ncnc3cc(OCCOC)c(OCCOC)cc23)c1 [Erlotinib]
[1]
  Structural cardiotoxin?: N
  Functional cardiotoxin?: Y
Cardiac microtissues [2]
  activation Z-score: Cardiac Hypertrophy Signaling: -2.236
  activation Z-score: Cell Cycle Control of Chromosomal Replication: -3.742
  activation Z-score: Cell Cycle Regulation by BTG Family Proteins: -2
  activation Z-score: Cyclins and Cell Cycle Regulation: -2.111
  activation Z-score: D-myo-inositol-5-phosphate Metabolism: -2.449
  activation Z-score: DNA Methylation and Transcriptional Repression Signaling: -2.646
  activation Z-score: Estrogen-mediated S-phase Entry: -2.121
  activation Z-score: Factors Promoting Cardiogenesis in Vertebrates: -0.816
  activation Z-score: G-Protein Coupled Receptor Signaling: -2.357
  activation Z-score: GP6 Signaling Pathway: -1.633
  activation Z-score: Glioma Invasiveness Signaling: -2
  activation Z-score: HIF1Î± Signaling: -2.121
  activation Z-score: HMGB1 Signaling: -2.236
  activation Z-score: Hepatic Fibrosis Signaling Pathway: -2.138
  activation Z-score: ILK Signaling: -1.134
  activation Z-score: Insulin Secretion Signaling Pathway: -2.121
  activation Z-score: Integrin Signaling: -2.449
  activation Z-score: Kinetochore Metaphase Signaling Pathway: -3.402
  activation Z-score: Mitotic Roles of Polo-Like Kinase: -2.309
  activation Z-score: Protein Kinase A Signaling: -1.155
  activation Z-score: Pyridoxal 5'-phosphate Salvage Pathway: -2.646
  activation Z-score: RHOGDI Signaling: 1.89
  activation Z-score: Regulation Of The Epithelial Mesenchymal Transition By Growth Factors Pathway: -2.449
  activation Z-score: Role of NFAT in Cardiac Hypertrophy: -2
  activation Z-score: Salvage Pathways of Pyrimidine Ribonucleotides: -2.828
  activation Z-score: Senescence Pathway: 0.728
  activation Z-score: Sphingosine-1-phosphate Signaling: -2
  activation Z-score: Superpathway of Inositol Phosphate Compounds: -2.449
  activation Z-score: Thrombin Signaling: -2.236
  activation Z-score: White Adipose Tissue Browning Pathway: -1.633
  activation Z-score: Wound Healing Signaling Pathway: -2.111
  activation Z-score: cAMP-mediated signaling: -1.633
  activation Z-score: tRNA Charging: 2.646
Cardiac microtissues [3]
  number of significant differentially expressed genes, 6hr high: 56
  number of significant differentially expressed genes, 6hr low: 39
  number of significant differentially expressed genes, 48hr high: 634
  number of significant differentially expressed genes, 48hr low: 152
  number of significant differentially expressed genes, 72hr high: 283
  number of significant differentially expressed genes, 72hr low: 78

## O=c1[nH]cc(F)c(=O)[nH]1 [Fluorouracil]
[1]
  Structural cardiotoxin?: Y
  Functional cardiotoxin?: Y
Cardiac microtissues [2]
  activation Z-score: BER (Base Excision Repair) Pathway: -2.236
  activation Z-score: Cell Cycle Control of Chromosomal Replication: -4.359
  activation Z-score: Cell Cycle Regulation by BTG Family Proteins: -1.342
  activation Z-score: Cyclins and Cell Cycle Regulation: -2.714
  activation Z-score: DNA Methylation and Transcriptional Repression Signaling: -1.414
  activation Z-score: Estrogen-mediated S-phase Entry: -2.333
  activation Z-score: G-Protein Coupled Receptor Signaling: -1
  activation Z-score: Kinetochore Metaphase Signaling Pathway: -3.772
  activation Z-score: Mismatch Repair in Eukaryotes: -2
  activation Z-score: Mitotic Roles of Polo-Like Kinase: -2.309
  activation Z-score: NER (Nucleotide Excision Repair, Enhanced Pathway): -1.414
  activation Z-score: Protein Kinase A Signaling: 2
  activation Z-score: Pyridoxal 5'-phosphate Salvage Pathway: -1.89
  activation Z-score: RHOGDI Signaling: 2
  activation Z-score: Salvage Pathways of Pyrimidine Ribonucleotides: -2.121
  activation Z-score: Senescence Pathway: 2.324
  activation Z-score: Superpathway of Inositol Phosphate Compounds: -0.447
Cardiac microtissues [3]
  number of significant differentially expressed genes, 6hr high: 0
  number of significant differentially expressed genes, 6hr low: 0
  number of significant differentially expressed genes, 48hr high: 401
  number of significant differentially expressed genes, 48hr low: 1
  number of significant differentially expressed genes, 72hr high: 366
  number of significant differentially expressed genes, 72hr low: 200

## Cc1ccc(C)c(OCCCC(C)(C)C(=O)O)c1 [Gemfibrozil]
[1]
  Structural cardiotoxin?: N
  Functional cardiotoxin?: N

## CC(C)NCC(O)c1ccc(O)c(O)c1 (stereo not shown) [Isoproterenol HCl]
[1]
  Structural cardiotoxin?: Y
  Functional cardiotoxin?: Y

## CCn1cc(C(=O)O)c(=O)c2cc(F)c(N3CCNC(C)C3)c(F)c21 (stereo not shown) [Lomefloxacin]
[1]
  Structural cardiotoxin?: Y
  Functional cardiotoxin?: Y

## COC(=O)Nc1nc2ccc(C(=O)c3ccccc3)cc2[nH]1 [Mebendazole]
Cardiac microtissues [3]
  number of significant differentially expressed genes, 6hr high: 195
  number of significant differentially expressed genes, 6hr low: 27
  number of significant differentially expressed genes, 48hr high: 407
  number of significant differentially expressed genes, 48hr low: 79
  number of significant differentially expressed genes, 72hr high: 536
  number of significant differentially expressed genes, 72hr low: 192

## CN(C)CCN(Cc1cccs1)c1ccccn1 [Methapyrilene]
[1]
  Structural cardiotoxin?: N

## O=C1C[C@@H](c2ccc(O)cc2)Oc2cc(O)cc(O)c21 [Narigenin, Naringenin]
[1]
  Structural cardiotoxin?: N
  Functional cardiotoxin?: N

## Cc1ccc(Nc2nccc(N(C)c3ccc4c(C)n(C)nc4c3)n2)cc1S(N)(=O)=O [Pazopanib]
[1]
  Structural cardiotoxin?: N
  Functional cardiotoxin?: Y

## CCc1ccc(CCOc2ccc(CC3SC(=O)NC3=O)cc2)nc1 (stereo not shown) [Pioglitazone]
[1]
  Structural cardiotoxin?: Y
  Functional cardiotoxin?: Y

## Cc1ccc(C(=O)Nc2ccc(CN3CCN(C)CC3)c(C(F)(F)F)c2)cc1C#Cc1cnc2cccnn12 [Ponatinib]
[1]
  Structural cardiotoxin?: Y
  Functional cardiotoxin?: Y

## O=C(C1CCCCC1)N1CC(=O)N2CCc3ccccc3C2C1 (stereo not shown) [Praziquantel]
[1]
  Structural cardiotoxin?: N
  Functional cardiotoxin?: N

## CS(=O)(=O)c1ccc(C2=C(c3ccccc3)C(=O)OC2)cc1 [Rofecoxib]
[1]
  Structural cardiotoxin?: Y
  Functional cardiotoxin?: Y

## N#CC[C@H](C1CCCC1)n1cc(-c2ncnc3[nH]ccc23)cn1 [Ruxolitinib]
[1]
  Structural cardiotoxin?: N
  Functional cardiotoxin?: N

## NC[C@H]1O[C@H](O[C@H]2[C@H](O)[C@@H](O[C@H]3O[C@H](CO)[C@@H](O)[C@H](N)[C@H]3O)[C@H](N)C[C@@H]2N)[C@H](N)C[C@@H]1O [Tobramycin]
[1]
  Structural cardiotoxin?: N
  Functional cardiotoxin?: N

## CCCCNC(=O)NS(=O)(=O)c1ccc(C)cc1 [Tolbutamide]
[1]
  Structural cardiotoxin?: N
  Functional cardiotoxin?: N
